We go through 2 compounds from publication PMC4579270, “Identification and Characterization of an Irreversible Inhibitor of CDK2” (Chemistry & Biology, 2015).

“Also recorded” adds a separate entry of the source.

Broadly, the Kd is a measure of binding affinity in units of concentration. A high value points to weaker binding. The term koff denotes a measure of how fast the partners let go of each other. A high value points to a short-lived complex. In general, kon refers to a measure of how fast the partners come together. A high value points to fast association.

For one assay, the target named is CDK2-Cyclin A (Homo sapiens, UniProt P24941). The assay can be described thus: Kinase assay against GST-Rb after overnight incubation and dialysis. The format is biochemical. The arrangement: made in house; host or cells: Escherichia coli (CDK2 co-expressed with S. cerevisiae CAK1). The following applies: wild-type CDK2/cyclin A, overnight with 1 mM inhibitor, dialysed 8 h. The method, then: To confirm the results of the ESI-MS and SPR analysis, CDK2/cyclin A was incubated with either NU6300 or NU6310, then the samples and appropriate controls were dialyzed. The resulting CDK2/cyclin A activity was analyzed in an in vitro kinase assay against a C-terminal fragment of the retinoblastoma protein Rb. After an overnight incubation in the presence of NU6300, CDK2 activity was not recovered after dialysis (Figure 2C). […] The activity of NU6300 was also characterized in an alternative kinase assay format (ADP-Glo;^, Promega) in which covalent inhibition of CDK2/cyclin A was allowed to proceed in a pre-incubation phase and was assessed in a subsequent activity assay, where enzyme and inhibitor were diluted such that the inhibitor was present at 20-fold below its IC50 value. The samples and appropriate controls were incubated for 0, 10, 30, 60, and 120 min, prior to addition of ATP and peptide substrate (sequence HHASPRK, single-letter amino acid code), to initiate the kinase reaction. […]
CDK2/cyclin A (200 µM) was incubated overnight with 1 mM inhibitor or DMSO, and then dialysed for 8 h with regular replacement of dialysis buffer into HEPES-buffered saline (50 mM HEPES, pH 7.5, 250 mM NaCl, 0.02% MTG). […] Reactions were stopped by addition of SDS-PAGE loading buffer and analyzed by SDS-PAGE. […]

Assay [1] deals with T1, immobilized CDK2/cyclin A (Homo sapiens, UniProt P24941).
T1 construct: made in house; host or cells: Escherichia coli
The assay can be described thus: SPR kinetics of non-covalent complex. The format is binding. The following applies: 1:1 model, 25 °C. From the text: To determine the kinetics of the interactions of NU6310 and NU6300 with immobilized CDK2/cyclin A, the sensor surface was exposed to five different concentrations of each inhibitor for different contact times (Figures 2A and 2B). On these relatively short time scales (compared with the experiment above), the interactions between CDK2 and either NU6300 or NU6310 appeared reversible, since the sensorgrams were well described by a simple 1:1 model and the dissociation was similar irrespective of the contact time. It enabled the estimation of the kinetic constants (kon, koff, KD) for the formation of the non-covalent complex. […] The formation of a covalent complex could not be detected on the time scales of these experiments, and the injection times could not be extended further for practical reasons.
Figure 2 NU6300 Is a Covalent Inhibitor of CDK2 (A and B) SPR sensorgrams for the interaction between immobilized CDK2 and NU6310 and NU6300. (A) The effects of time on the interaction were evaluated by comparing the dissociation rates for the compounds injected at 10 μM for different contact times (30, 60, 120, and 240 s). Sensorgrams are aligned with respect to the start of the dissociation. (B) The determination of rate constants was based on global analysis of a set of sensorgrams recorded for a concentration series (39, 156, 625, 2,500, and 10,000 nM) of the compounds. Theoretical curves of a fitted 1:1 Langmuir interaction model (black) are overlaid on the experimental traces. (C) Phosphorylation of GST-Rb by CDK2/cyclin A. The slower-migrating band is hyperphosphorylated GST-Rb (Phospho-Rb). Time points (in minutes) are shown above. (D) Time-dependent inhibition of CDK2/cyclin A. Activity was measured using the ADP-Glo assay format against a peptide of sequence HHASPRK. Error bars indicate SD of the measurements. See also Figure S1 and Table S1.
The interaction experiments were performed using SPR biosensor technology, with Biacore S51 and T100 instruments, CM5 biosensor chips, and standard reagents (GE Healthcare). Full details can be found in the Supplemental Experimental Procedures. […]
CDK2 was immobilized to activated carboxylated dextran surfaces by amine coupling to give surface densities of 6000-25000 RU. All interaction experiments were performed at 25 °C in 10 mM phosphate pH 7.4, 137 mM NaCl, 3 mM KCl, with addition of 0.05 % Tween 20, 5 % (v/v) DMSO, and at a flow rate of 90 or 30 µL/min. […]
Sensorgrams or extracted report points from reference surfaces and blank injections were subtracted from the raw data prior to data analysis, using Biacore T100 evaluation software 2.0. A 1:1 interaction model was fitted globally to sets of sensorgrams recorded with different contact times and at different inhibitor concentrations in multi-cycle experiments. Kinetic parameters were determined from sensorgrams with 30 s and 60 s contact time. Standard deviations were based on at least 4 measurement series.
CDK2/cyclin A was mixed with a freshly prepared solution of NU6300 to achieve DMSO and inhibitor concentrations of 2% and 2 mM respectively, concentrated by ultrafiltration to a CDK2/cyclin A final concentration of circa 5 mg ml-1, and then crystallized as described (Davies et al., 2002). Briefly, crystals were grown from a mother liquor containing 0.6–0.8 M KCl, 0.9–1.2 M (NH4)2SO4, and 100 mM HEPES (pH 7.0). Sitting drops were set up with a 1:1 ratio of protein to reservoir solution in a total initial volume of 0.5 or 1.0 µl.
Before data collection, crystals were briefly immersed in cryo-protectant (1 M sodium
A general note: SPR reads the build-up and loss of mass on a sensor chip optically.

As for `C=CS(=O)(=O)c1ccc(Nc2nc(OCC3CCCCC3)c3nc[nH]c3n2)cc1` [NU6300, 6-(cyclohexylmethoxy)-N-(4-(vinylsulfonyl)phenyl)-9H-purin-2-amine], at CDK2-Cyclin A, the “CDK2 activity against Rb after incubation with inhibitor and dialysis” value is given as “not recovered; also recorded: did not”. In addition, in assay [1], the affinity, expressed as Kd, was 1310 ± 180 nM; the koff was found to be 0.0713 ± 0.0063 s⁻¹; the kon turned out to be 54500 ± 7.2e+08 M⁻¹ s⁻¹.
Turning to `CCS(=O)(=O)c1ccc(Nc2nc(OCC3CCCCC3)c3nc[nH]c3n2)cc1` [NU6310, 6-(cyclohexylmethoxy)-N-(4-(ethylsulfonyl)phenyl)-9H-purin-2-amine], on CDK2-Cyclin A, the “CDK2 activity against Rb after incubation with inhibitor and dialysis” value is “could phosphorylate Rb; also recorded: recovered their activity”. For the same compound, in assay [1], the affinity, expressed as Kd, was 716 ± 12 nM; the koff turned out to be 0.0809 ± 0.007 s⁻¹; the kon is 113000 ± 1e+09 M⁻¹ s⁻¹.
